# Experimental data taken from patent publication US4423210A, “Intermediates for the preparation of 3-demethoxyfortimicins” (Abbott Laboratories, priority 1982, dated 1983).
# Counter-ions that a name gives are not always drawn. Like-named read-outs stand apart in the source and are kept apart here.
# Tests used:
# E. coli BL 3676 (Res) = assay: in vitro antibiotic activity, two-fold agar dilution (MIC); type: cell-based; conditions: Escherichia coli
# Method: (§1) The in vitro activity of 3-demethoxyfortimicin A of Example 10 is determined by a two-fold dilution test using 10 ml. of Mueller-Hinton agar per Petri plate. The agar plates are innoculated with approximately 1×10^5 of the test organisms indicated in Table II, delivered to the agar surface by a Steers replicator. The innoculated plates are incubated for 24 hours at 35° C. in the presence of varying concentrations of 3-demethoxyfortimicin A tetrahydrochloride of Example 10 or fortimicin A sulfate as a comparative antibiotic.
# E. coli JUHL = assay: as above; type: cell-based; conditions: Escherichia coli
# Method: as §1
# [1] = test system: Enterobacter aerogenes 13048; assay: as above; type: cell-based
# Method: as §1
# Kleb. pneumoniae KY 4262 = assay: as above; type: cell-based; conditions: Klebsiella pneumoniae
# Method: as §1
# [2] = test system: Proteus mirabilis Fin. #9; assay: as above; type: cell-based
# Method: as §1
# Proteus rettgeri U6333 = assay: as above; type: cell-based; conditions: Providencia rettgeri
# Method: as §1
# Proteus vulgaris JJ = assay: as above; type: cell-based
# Method: as §1
# Providencia 1577 = assay: as above; type: cell-based
# Method: as §1
# [3] = test system: Pseudo. aeruginosa BMH #10; assay: as above; type: cell-based; conditions: Pseudomonas aeruginosa
# Method: as §1
# [4] = test system: Pseudo. aeruginosa KY 8512; assay: as above; type: cell-based; conditions: Pseudomonas aeruginosa
# Method: as §1
# [5] = test system: Pseudo. aeruginosa KY 8516; assay: as above; type: cell-based; conditions: Pseudomonas aeruginosa
# Method: as §1
# Serratia marcescens 4003 = assay: as above; type: cell-based
# Method: as §1
# Shigella sonnei 9290 = assay: as above; type: cell-based; conditions: Mueller-Hinton agar, 24 hours, 35° C.
# Method: as §1
# Staph. aureus Smith = assay: as above; type: cell-based; conditions: Staphylococcus aureus
# Method: as §1
# Strep. faecalis 10541 = assay: as above; type: cell-based
# Method: as §1
# E. coli 76-2 = assay: as above; type: cell-based, Escherichia coli
# Method: as §1
# Kleb. pneumoniae 10031 = assay: as above; type: cell-based, Klebsiella pneumoniae
# Method: as §1
# Pseudo aeruginosa 27853 = assay: as above; type: cell-based, Pseudomonas aeruginosa
# Method: as §1
# Pseudo. aeruginosa 209 = assay: as above; type: cell-based, Pseudomonas aeruginosa
# Method: as §1
# Sal. typhimurium Ed. #9 = assay: as above; type: cell-based, Salmonella typhimurium; conditions: Salmonella enterica
# Method: as §1
# [6] = test system: strains tested (Table II); assay: overall antibiotic activity relative to fortimicin A sulfate; type: cell-based
# Method: as §1
smiles,measurement,setting,value
CC(N)C1CCC(N)C(OC2C(N)C(O)CC(N(C)C(=O)CN)C2O)O1 (stereo not drawn) [3-Demethoxyfortimicin A tetrahydrochloride],MIC,"E. coli BL 3676 (Res); E. coli BL 3676 (Res), Mueller-Hinton agar, 24 hours, 35° C., read-out: MIC",25 µg/mL
same,MIC,"E. coli JUHL; E. coli JUHL, Mueller-Hinton agar, 24 hours, 35° C., read-out: MIC",3.1 µg/mL
same,MIC,"[1]; Klebsiella aerogenes, Enterobacter aerogenes 13048, Mueller-Hinton agar, 24 hours, 35° C., read-out: MIC",3.1 µg/mL
same,MIC,"Kleb. pneumoniae KY 4262; KY4262, Kleb. pneumoniae KY 4262, Mueller-Hinton agar, 24 hours, 35° C., read-out: MIC",3.1 µg/mL
same,MIC,"[2]; Proteus mirabilis Fin. #9, Mueller-Hinton agar, 24 hours, 35° C., read-out: MIC",3.1 µg/mL
same,MIC,"Proteus rettgeri U6333; Proteus rettgeri U6333, Mueller-Hinton agar, 24 hours, 35° C., read-out: MIC",6.2 µg/mL
same,MIC,"Proteus vulgaris JJ; Proteus vulgaris JJ, Mueller-Hinton agar, 24 hours, 35° C., read-out: MIC",3.1 µg/mL
same,MIC,"Providencia 1577; Providencia 1577, Mueller-Hinton agar, 24 hours, 35° C., read-out: MIC",1.56 µg/mL
same,MIC,"[3]; Pseudo. aeruginosa BMH #10, Mueller-Hinton agar, 24 hours, 35° C., read-out: MIC",0.78 µg/mL
same,MIC,"[4]; KY8512, Pseudo. aeruginosa KY 8512, Mueller-Hinton agar, 24 hours, 35° C., read-out: MIC",3.1 µg/mL
same,MIC,"[5]; KY8516, Pseudo. aeruginosa KY 8516, Mueller-Hinton agar, 24 hours, 35° C., read-out: MIC",3.1 µg/mL
same,MIC,"Serratia marcescens 4003; Serratia marcescens 4003, Mueller-Hinton agar, 24 hours, 35° C., read-out: MIC",1.56 µg/mL
same,MIC,Shigella sonnei 9290,3.1 µg/mL
same,MIC,"Staph. aureus Smith; Staph. aureus Smith, Mueller-Hinton agar, 24 hours, 35° C., read-out: MIC",0.78 µg/mL
same,MIC,"Strep. faecalis 10541; Enterococcus faecalis, Strep. faecalis 10541, Mueller-Hinton agar, 24 hours, 35° C., read-out: MIC",25 µg/mL
same,MIC,"E. coli 76-2; Escherichia coli, 762, E. coli 76-2, Mueller-Hinton agar, 24 hours, 35° C., read-out: MIC",1.56 µg/mL
same,MIC,"Kleb. pneumoniae 10031; Klebsiella pneumoniae, Kleb. pneumoniae 10031, Mueller-Hinton agar, 24 hours, 35° C., read-out: MIC",1.56 µg/mL
same,MIC,"Pseudo aeruginosa 27853; Pseudomonas aeruginosa, Pseudo aeruginosa 27853, Mueller-Hinton agar, 24 hours, 35° C., read-out: MIC",6.2 µg/mL
same,MIC,"Pseudo. aeruginosa 209; Pseudomonas aeruginosa, Pseudo. aeruginosa 209, Mueller-Hinton agar, 24 hours, 35° C., read-out: MIC",100 µg/mL
same,MIC,"Sal. typhimurium Ed. #9; Sal. typhimurium Ed. #9, Mueller-Hinton agar, 24 hours, 35° C., read-out: MIC",3.1 µg/mL
same,activity relative to that of fortimicin A sulfate,[6]; against many of the susceptible strains tested,~200%
same,overall activity relative to that of fortimicin A sulfate,"[6]; overall, all strains of Table II",approximately 137%
"COC1C(O)C(N)C(OC2OC(C(C)N)CCC2N)C(O)C1N(C)C(=O)CN (stereo not drawn) [Fortimicin A Sulfate, fortimicin A sulfate, reference compound]",MIC,E. coli BL 3676 (Res); 24 h,25 µg/mL
same,MIC,E. coli JUHL; 24 h,3.1 µg/mL
same,MIC,"[1]; Klebsiella aerogenes, 13048, 24 h",3.1 µg/mL
same,MIC,"Kleb. pneumoniae KY 4262; KY4262, 24 h",6.2 µg/mL
same,MIC,"[2]; Proteus mirabilis, 24 h",3.1 µg/mL
same,MIC,"Proteus rettgeri U6333; U6333, 24 h",12.5 µg/mL
same,MIC,"Proteus vulgaris JJ; Proteus vulgaris, 24 h",3.1 µg/mL
same,MIC,"Providencia 1577; Providencia, 1577, 24 h",1.56 µg/mL
same,MIC,[3]; 24 h,0.78 µg/mL
same,MIC,"[4]; KY8512, 24 h",6.2 µg/mL
same,MIC,"[5]; KY8516, 24 h",6.2 µg/mL
same,MIC,"Serratia marcescens 4003; Serratia marcescens, 4003, 24 h",3.1 µg/mL
same,MIC,Shigella sonnei 9290,6.2 µg/mL
same,MIC,Staph. aureus Smith; 24 h,0.78 µg/mL
same,MIC,"Strep. faecalis 10541; Enterococcus faecalis, 10541, 24 h",50 µg/mL
same,MIC,"E. coli 76-2; Escherichia coli, 762, 24 h",3.1 µg/mL
same,MIC,"Kleb. pneumoniae 10031; Klebsiella pneumoniae, 10031, 24 h",1.56 µg/mL
same,MIC,"Pseudo aeruginosa 27853; Pseudomonas aeruginosa, 27853, 24 h",12.5 µg/mL
same,MIC,"Pseudo. aeruginosa 209; Pseudomonas aeruginosa, 209, 24 h",100 µg/mL
same,MIC,"Sal. typhimurium Ed. #9; TYPHIMURIUM, 24 h",3.1 µg/mL
